From patent publication US20230107642A1 (Erasca, Inc., priority 2020, published 2023)

Target: T1, K-Ras G12C (Homo sapiens, UniProt P01116, G12C)
T1 construct: This protein contained 188 amino acids in total, including an N-terminal 6-Histidine tag; made in house; host or cells: E. coli BL21
Experiment: CAF assay (% CAF; method in Example 7, not in this part)
Format: binding
Conditions: for % CAF @ 10 μM, 1 h: Table 4

Compound	% CAF @ 10 uM, 1h (10 uM, 1 h, Table 3) [%]	% CAF @ 10 uM, 1h (10 uM compound, 1 h incubation) [%]	other results
C=CC(=O)N1C[C@H](C)N(c2nc(=O)n3c4c(c(-c5cc(Cl)c(F)cc5F)c(C(F)(F)F)cc24)SC[C@@H]3CN2CCN(CC(F)F)CC2)C[C@H]1C (atropisomer, axis not shown) [Example 556, (3S,10R)-7-((2S,5R)-4-acryloyl-2,5-dimethylpiperazin-1-yl)-10-(5-chloro-2,4-difluorophenyl)-3-((4-(2,2-difluoroethyl)piperazin-1-yl)methyl)-9-(trifluoromethyl)-2H-[1,4]thiazino[2,3,4-ij]quinazolin-5(3H)-one]	–	73.1	–
C=CC(=O)N1C[C@H](C)N(c2nc(=O)n3c4c(c(-c5ccc(F)cc5)c(C(F)(F)F)cc24)SC[C@@H]3CN2CCN(CC(F)F)CC2)C[C@H]1C [Example 574, (S)-7-((2S,5R)-4-acryloyl-2,5-dimethylpiperazin-1-yl)-3-((4-(2,2-difluoroethyl)piperazin-1-yl)methyl)-10-(4-fluorophenyl)-9-(trifluoromethyl)-2H-[1,4]thiazino[2,3,4-ij]quinazolin-5(3H)-one]	–	83.2	–
C=CC(=O)N1CCN(c2nc(=O)n3c4c(c(-c5ccc(F)cc5F)c(Cl)cc24)SC[C@H]3CCCN2C[C@@H]3C[C@H]2CO3)[C@@H](C)C1 [Example 341, (3R)-3-(3-((1S,4S)-2-oxa-5-azabicyclo[2.2.1]heptan-5-yl)propyl)-7-((S)-4-acryloyl-2-methylpiperazin-1-yl)-9-chloro-10-(2,4-difluorophenyl)-2H-[1,4]thiazino[2,3,4-ij]quinazolin-5(3H)-one]	–	–	% CAF @ 10 μM, 1 h (1 h): 96.5%
C[C@H]1CN(C(=O)/C=C/C(F)(F)F)CCN1c1nc(=O)n2c3c(c(-c4cc(F)cc(Cl)c4)c(Cl)cc13)SCC2 [Example 65]	3	–	% CAF 10 uM @ 60 min (10 uM, 60 min, Table 2a): 70%
C=CC(=O)N1CCN(c2nc(=O)n3c4c(c(-c5cc(F)c(F)cc5F)c(C(F)(F)F)cc24)SC[C@H]3COCOC)[C@@H](C)C1 [Example 471, (3R)-7-((S)-4-acryloyl-2-methylpiperazin-1-yl)-3-((methoxymethoxy)methyl)-9-(trifluoromethyl)-10-(2,4,5-trifluorophenyl)-2H-[1,4]thiazino[2,3,4-ij]quinazolin-5(3H)-one]	–	23.9	–
C=CC(=O)N1CCN(c2nc(=O)n3c4c(c(-c5cccc6ccncc56)c(Cl)cc24)SCC3)[C@@H](C)C1 [Example 71, 7-((S)-4-acryloyl-2-methylpiperazin-1-yl)-9-chloro-10-(isoquinolin-8-yl)-2,3-dihydro-5H-[1,4]thiazino[2,3,4-ij]quinazolin-5-one]	87.8	–	–
C=C(F)C(=O)N1CCN(c2nc(=O)n3c4c(c(-c5ccc(F)cc5F)c(Cl)cc24)SCC3)C[C@@H]1CC#N [Example 176, 2-((2S)-4-(9-chloro-10-(2,4-difluorophenyl)-5-oxo-2,3-dihydro-5H-[1,4]thiazino[2,3,4-ij]quinazolin-7-yl)-1-(2-fluoroacryloyl)piper-azin-2-yl)acetonitrile]	40.5	–	–
C=CC(=O)N1CCN(c2nc(=O)n3c4c(c(-c5ccc(F)cc5F)c(Cl)cc24)SC[C@@H]3CCCN2C[C@@H]3C[C@H]2CO3)[C@@H](C)C1 [Example 342, (3S)-3-(3-((1S,4S)-2-oxa-5-azabicyclo[2.2.1]heptan-5-yl)propyl)-7-((S)-4-acryloyl-2-methylpiperazin-1-yl)-9-chloro-10-(2,4-difluorophenyl)-2H-[1,4]thiazino[2,3,4-ij]quinazolin-5(3H)-one]	–	–	% CAF @ 10 μM, 1 h (1 h): 94.7%
C=CC(=O)N1C[C@H](C)N(c2nc(=O)n3c4c(c(-c5ccc(F)cc5)c(Cl)cc24)SC[C@@H]3COC)C[C@H]1C [Example 573, (S)-7-((2S,5R)-4-acryloyl-2,5-dimethylpiperazin-1-yl)-9-chloro-10-(4-fluorophenyl)-3-(methoxymethyl)-2H-[1,4]thiazino[2,3,4-ij]quinazolin-5(3H)-one]	–	76.4	–
C=CC(=O)N1C2CN(c3nc(=O)n4c5c(c(-c6ccc(F)cc6F)c(C(F)(F)F)cc35)SC[C@@H]4COC)CC1CC(F)(F)C2 [Example 523, (3S)-7-(9-acryloyl-7,7-difluoro-3,9-diazabicyclo[3.3.1]nonan-3-yl)-10-(2,4-difluorophenyl)-3-(methoxymethyl)-9-(trifluoromethyl)-2H-[1,4]thiazino[2,3,4-ij]quinazolin-5(3H)-one]	–	68.9	–
C=CC(=O)N1C2CC(=O)CC1CN(c1nc(=O)n3c4c(c(-c5ccc(F)cc5F)c(C(F)(F)F)cc14)OCCC3)C2 [Example 338, 8-(9-acryloyl-7-oxo-3,9-diazabicyclo[3.3.1]nonan-3-yl)-11-(2,4-difluorophenyl)-10-(trifluoromethyl)-3,4-dihydro-2H,6H-[1,4]oxazepino[2,3,4-ij]quinazolin-6-one]	–	–	% CAF @ 10 μM, 1 h (1 h): 95.3%
C=CC(=O)N1C[C@H](C)N(c2nc(=O)n3c4c(c(-c5ccc(F)cc5F)c(Cl)cc24)S(=O)(=O)CC3)C[C@H]1C [Example 184, 7-((2S,5R)-4-acryloyl-2,5-dimethylpiperazin-1-yl)-9-chloro-10-(2,4-difluorophenyl)-2,3-dihydro-5H-[1,4]thiazino[2,3,4-ij]quinazolin-5-one 1,1-dioxide]	91.4	–	–
C=CC(=O)N1[C@H](C)CN(c2nc(=O)n3c4c(c(-c5cc(Cl)c(F)cc5F)c(C(F)(F)F)cc24)SC[C@@H]3CO)C[C@@H]1C [Example 568, (3S)-7-((3S,5R)-4-acryloyl-3,5-dimethylpiperazin-1-yl)-10-(5-chloro-2,4-difluorophenyl)-3-(hydroxymethyl)-9-(trifluoromethyl)-2H-[1,4]thiazino[2,3,4-ij]quinazolin-5(3H)-one]	–	52.3	–
C=CC(=O)N1[C@H](C)CN(c2nc(=O)n3c4c(c(-c5cc(Cl)c(F)cc5F)c(C(F)(F)F)cc24)SC[C@@H]3CN2CCC3(CC2)COC3)C[C@@H]1C (atropisomer, axis not shown) [Example 566, (3S,10R)-3-((2-oxa-7-azaspiro[3.5]nonan-7-yl)methyl)-7-((3S,5R)-4-acryloyl-3,5-dimethylpiperazin-1-yl)-10-(5-chloro-2,4-difluorophenyl)-9-(trifluoromethyl)-2,3-dihydro-5H-[1,4]thiazino[2,3,4-ij]quinazolin-5-one]	–	77.7	–

More lines, main results first:

% CAF @ 10 uM, 1h (10 uM, 1 h, Table 3) [%]	% CAF @ 10 uM, 1h (10 uM compound, 1 h incubation) [%]	Compound	other results
92.6	–	C=CC(=O)N1CCN(c2nc(=O)n3c4c(c(-c5ccc(F)cc5F)c(Cl)cc24)SCC3)C[C@@H]1CS(C)(=O)=O [Example 186, 7-((R)-4-acryloyl-3-((methylsulfonyl)methyl)piperazin-1-yl)-9-chloro-10-(2,4-difluorophenyl)-2,3-dihydro-5H-[1,4]thiazino[2,3,4-ij]quinazolin-5-one]	–
78.8	–	C=CC(=O)N1CCN(c2nc(=O)n3c4c(c(-c5cc(F)c(F)c(F)c5)c(Cl)cc24)SCC3)[C@@H](C)C1 [Example 90, (S)-7-(4-acryloyl-2-methylpiperazin-1-yl)-9-chloro-10-(3,4,5-trifluorophenyl)-2,3-dihydro-5H-[1,4]thiazino[2,3,4-ij]quinazolin-5-one]	–
–	24.1	C=CC(=O)N1CCN(c2nc(=O)n3c4c(c(-c5ccc(F)cc5)c(Cl)cc24)SC[C@@H]3CN2CCn3c(nnc3C(F)(F)F)C2)[C@@H](C)C1 [Example 444, (S)-7-((S)-4-acryloyl-2-methylpiperazin-1-yl)-9-chloro-10-(4-fluorophenyl)-3-((3-(trifluoromethyl)-5,6-dihydro-[1,2,4]triazolo[4,3-a]pyrazin-7(8H)-yl)methyl)-2H-[1,4]thiazino[2,3,4-ij]quinazolin-5(3H)-one]	–
44.6	–	C=CC(=O)N1CCN(c2nc(=O)n3c4c(c(-c5ccc(F)cc5F)c(Cl)cc24)SCC3CN2CCOCC2)[C@@H](C)C1 (stereo partly drawn) [Example 147, 7-((S)-4-acryloyl-2-methylpiperazin-1-yl)-9-chloro-10-(2,4-difluorophenyl)-3-(morpholinomethyl)-2,3-dihydro-5H-[1,4]thiazino[2,3,4-ij]quinazolin-5-one]	–
–	63.5	C=CC(=O)N1C[C@H](C)N(c2nc(=O)n3c4c(c(-c5ccc(F)cc5F)c(Cl)cc24)SC[C@@H]3CC2CCN(CC(F)F)CC2)C[C@H]1C [Example 477, (3S)-7-((2S,5R)-4-acryloyl-2,5-dimethylpiperazin-1-yl)-9-chloro-3-((1-(2,2-difluoroethyl)piperidin-4-yl)methyl)-10-(2,4-difluorophenyl)-2H-[1,4]thiazino[2,3,4-ij]quinazolin-5(3H)-one]	–
41.4	–	C=CC(=O)N1CCN(c2nc(=O)n3c4c(c(-c5cc(OC(F)F)ccc5F)c(Cl)cc24)SCC3)[C@@H](C)C1 [Example 163, 7-((S)-4-acryloyl-2-methylpiperazin-1-yl)-9-chloro-10-(5-(difluoromethoxy)-2-fluorophenyl)-2,3-dihydro-5H-[1,4]thiazino[2,3,4-ij]quinazolin-5-one]	–
96	–	C=CC(=O)N1CCN(c2nc(=O)n3c4c(c(-c5ccccc5F)c(Cl)cc24)SCC3)[C@@H](C)C1 (atropisomer, axis not shown) [Example 124, (S)-7-((S)-4-acryloyl-2-methylpiperazin-1-yl)-9-chloro-10-(2-fluorophenyl)-2,3-dihydro-5H-[1,4]thiazino[2,3,4-ij]quinazolin-5-one]	–
–	92.8	C=CC(=O)N1CCN(c2nc(=O)n3c4c(c(-c5ccc(F)cc5F)c(Cl)cc24)SC[C@@H]3CC2CCOCC2)[C@@H](C)C1 [Example 438, (3S)-7-((S)-4-acryloyl-2-methylpiperazin-1-yl)-9-chloro-10-(2,4-difluorophenyl)-3-((tetrahydro-2H-pyran-4-yl)methyl)-2H-[1,4]thiazino[2,3,4-ij]quinazolin-5(3H)-one]	–
82.4	–	C=CC(=O)N1CCN(c2nc(=O)n3c4c(c(-c5ccc(F)cc5F)c(Cl)cc24)SC[C@H]3CC2CCN(C)CC2)[C@@H](C)C1 [Example 87, (3R)-7-((S)-4-acryloyl-2-methylpiperazin-1-yl)-9-chloro-10-(2,4-difluorophenyl)-3-((1-methylpiperidin-4-yl)methyl)-2,3-dihydro-5H-[1,4]thiazino[2,3,4-ij]quinazolin-5-one]	–
